Measurements as given in publication PMC8196714, “Design, Radiosynthesis and Preliminary Biological Evaluation in Mice of a Brain-Penetrant ^18F-Labelled σ2 Receptor Ligand” (International Journal of Molecular Sciences, 2021).

Key:
[1] = target: T1, σ2 receptor (Rattus norvegicus, UniProt Q5U3Y7); experiment: In vitro autoradiography on rat brain cryosections (healthy and orthotopic F98 glioblastoma); type: binding; design: from tissue; host or cells: rat brain cryosections (SPRD healthy; Fisher F344 with orthotopic F98 glioblastoma); settings: for specific binding sites: at 1.5 nM [18F]RM273; for Kd: rat brain cryosections, n = 2
T1 sequence (Q5U3Y7 1-176): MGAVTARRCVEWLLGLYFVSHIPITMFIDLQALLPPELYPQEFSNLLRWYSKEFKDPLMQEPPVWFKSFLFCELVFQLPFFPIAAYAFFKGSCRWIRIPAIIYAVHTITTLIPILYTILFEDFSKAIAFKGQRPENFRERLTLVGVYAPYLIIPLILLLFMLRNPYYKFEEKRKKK
From the text: (§1) Initially, we investigated the binding of [^18F]RM273 on rat brain slices by autoradiography to compare the distribution pattern with that of established σ2 receptor ligands and to examine the target specificity. The highest binding was found in the cortical areas and hippocampal structures. […] Accordingly, we proceeded to investigate, in a rat glioblastoma model, the potential suitability of [^18F]RM273 for molecular characterization of cancer. At first, homologous competition studies using membrane homogenates of the rat glioma cell line F98 were performed to determine the σ2 receptor binding parameters of [^18F]RM273 cells (Figure 3).
We subsequently investigated the binding parameters of [^18F]RM273 by in vitro autoradiography using cryosections of rat brains obtained three weeks after stereotactic implantation of F98 rat glioblastoma cells into the left striatum. Initially, we performed a homologous displacement study to directly compare the binding sites of the new radioligand in a healthy brain and a brain tumor. The inhibition curves presented in Figure 3 indicate binding of [^18F]RM273 to single binding sites in both brain regions. […] Further supporting the assumption of a tumor-specific overexpression of σ2 receptors, a remarkably high density of binding sites of [^18F]RM273 in the F98 tumor tissue was observed (Figure 4). Compared to the healthy tissue (contralateral side), about three times more specific binding sites of [^18F]RM273 were estimated for the tumor region (32 × 10^−9 mol/L vs. 94 × 10^−9 mol/L at 1.5 nM [^18F]RM273).
In vitro autoradiography was performed using cryosections of brains of a healthy rat (SPRD, female, 250 g; Medizinisch-Experimentelles Zentrum, Universität Leipzig, Leipzig, Germany) and brains obtained from rats (Fisher F344/HanZtmRj, male, ≈260 g; Janvier Labs, Le Genest-Saint-Isle, France) 23 days after stereotactic implantation of 5 × 10^4 F98 cells in the […] striatum (n = 2).
Immediately after isolation, the brains were frozen by immersion in isopentane at −25 °C. Cryosections of 12 μm (Microm HM560 cryostat, Thermo Scientific, Schwerte, Germany) were mounted on microscopic glass slides, dried at room temperature, and stored at −25 °C. For the experiment, the slices were dried at room temperature under a stream of cold air before pre-incubation in PBS, pH 7.4, at room temperature for 15 min. […] Co-incubation with serial dilutions of RM273 (10^−10–10^−6 M) was performed to determine an inhibition curve. After 60 min, the incubation at room temperature was terminated by decanting and washing the slides by two consecutive incubations in ice-cold washing buffer (50 mM TRIS-HCl, pH 7.4 at 4 °C) for two min each, followed by dipping in ice-cold demineralized water for 5 sec and drying under a stream of cold air. In parallel, for subsequent quantification of the data obtained from the homologous competition experiment, defined volumes, and thus defined activities of the radioligand solution, were pipetted onto a microscopic glass slide (0.5–3 μL = 0.0355–0.213 kBq) and dried. Afterwards the tissue samples along with the standards were exposed to an ^18F-sensitive phosphor screen (ABC) for two hours. Image acquisition was performed using a phosphorimager (HD-CR 35; DÜRR NDT GmbH & Co. KG, Bietigheim-Bissingen, Germany). Analysis of the digitized images was performed by image analysis software (AIDA; Elysia-raytest GmbH, Straubenhardt, Germany).
Irregular regions of interest (ROI) were drawn on the standard spots and the different brain regions, which were confirmed by Nissl staining of the identical brain sections. Optical density measured in each ROI was expressed as quantum levels per unit area (QL/pixel) with a pixel size of 12.5 μm^2. From the calibration curve obtained from the standards by plotting QL vs. activity, the QL values of the ROIs were converted to activity values followed by conversion to chemical concentration of RM273 based on the molar activity of [^18F]RM273. […]

[2] = target: T2, σ2 receptors expressed in F98 cells (Rattus norvegicus, UniProt Q5U3Y7); experiment: Homologous competition with membrane homogenates of F98 cells; type: binding
T2 construct: σ2 receptors expressed in F98 cells; endogenous in cells; host or cells: F98 rat glioma cells
T2 sequence (Q5U3Y7 1-176): T1 sequence (Q5U3Y7 1-176)
From the text: as §1
Binding affinity experiments to assess the Ki values of test compounds towards rat σ2 receptors, human σ1 receptors, and rat VAChT were performed according to protocols previously published by our group. The same protocol was used to determine the KD and Bmax values of RM273 towards σ2 receptors expressed in F98 cells by homologous competition analyzing the displacement of [^18F]RM273 by RM273.
Figure 3 Determination of KD and Bmax values of [^18F]RM273. Homologous competition studies were performed by incubation of [^18F]RM273 at 5–7 different molar activities either with membrane homogenates of F98 cells (open squares) or cryosections of rat brain (n = 2) obtained about three weeks after stereotactic implantation of F98 cells (tumor region = filled circles; contralateral region = open circles). […] For the F98 cell homogenate, the maximum number of binding sites Bmax was calculated by division of the specific binding by the fractional occupancy fp (Bmax = 36,000 fmol/mg protein).

## COc1cc2c(cc1OC)CN(CCCCn1ccc3ccc([18F])nc31)CC2 [[^18F]RM273]
[1]; F98 tumor region
  specific binding sites: 9.4e-08 mol/L
[1]; contralateral striatum / contralateral brain
  Kd: 2.93 nM
[1]; healthy tissue (contralateral side)
  specific binding sites: 3.2e-08 mol/L
[1]; orthotopically grown F98 tumor region
  Kd: 4.82 nM
[2]; F98 cell homogenate, converted from fmol/mg protein
  Bmax equivalent: about 3600 fmol/mg tissue
[2]; F98 cell membrane homogenate
  Bmax: 36,000 fmol/mg protein
[2]; F98 cell membrane homogenate, homologous competition
  Kd: 12 nM
